Measured values from US7759345B2, “Antitumoral derivatives of ET-743” (priority 2001, dated 2010).

Tests used:
Format in all cases: cell-based
Details in all cases: SRB, 48 hours exposure
HMEC1 = assay: Inhibition of cells growth by colorimetric assay (SRB), HMEC1
Experimental: (§1) 2°.—Inhibition of Cells Growth by Colorimetric Assay.
(§2) A colorimetric type of assay, using sulforhodamine B (SRB) reaction has been adapted for a quantitative measurement of cell growth and viability [following the technique described by Philip Skehan, et al. (1990), New colorimetric cytotoxicity assay for anticancer drug screening, J. Natl. Cancer Inst., 82:1107-1112]
(§3) This form of the assay employs 96 well cell culture microplates of 9 mm diameter (Faircloth, 1988; Mosmann, 1983). Most of the cell lines are obtained from American Type Culture Collection (ATCC) derived from different human cancer types.
(§4) Cells are maintained in RPMI 1640 10% FBS, supplemented with 0.1 g/l penicillin and 0.1 g/l streptomycin sulfate and then incubated at 37° C., 5% CO2 and 98% humidity. For the experiments, cells were harvested from subconfluent cultures using trypsin and resuspended in fresh medium before plating.
(§5) Cells are seeded in 96 well microtiter plates, at 5×10^3 cells per well in aliquots of 195 μl medium, and they are allowed to attach to the plate surface by growing in drug free medium for 18 hours. Afterward, samples are added in aliquots of 5 μl in a ranging from 10 to 10^−8 μg/ml, dissolved in DMSO/EtOH/PBS (0.5:0.5:99). After 48 hours exposure, the antitumor effect are measured by the SRB methodology: cells are fixed by adding 50 μl of cold 50% (wt/vol) trichloroacetic acid (TCA) and incubating for 60 minutes at 4° C. Plates are washed with deionized water and dried. One hundred μl of SRB solution (0.4% wt/vol in 1% acetic acid) is added to each microtiter well and incubated for 10 minutes at room temperature. Unbound SRB is removed by washing with 1% acetic acid. Plates are air dried and bound stain is solubilized with Tris buffer. Optical densities are read on a automated spectrophotometric plate reader at a single wavelength of 490 nm.
(§6) The values for mean+/−SD of data from triplicate wells are calculated. Some parameters for cellular responses can be calculated: GI=growth inhibition, TGI=total growth inhibition (cytostatic effect) and LC=cell killing (cytotoxic effect).
(§7) Obtained results may predict the usefulness of a certain drug as a potential cancer treatment. For this technique, compounds which show GI50 values smaller than 10 μg/ml are selected to continue with further studies. GI50's data allow to predict that not only could a drug be cystostatic, but also it could have a potential in terms of tumor reduction.

LoVo-Dox = assay: Inhibition of cells growth by colorimetric assay (SRB), LoVo-Dox
Experimental: as §1, §2, §3, §4, §5, §6, §7

K-562 = assay: Inhibition of cells growth by colorimetric assay (SRB), K-562
Experimental: as §1, §2, §3, §4, §5, §6, §7

HT-29 = assay: Inhibition of cells growth by colorimetric assay (SRB), HT-29
In short: (§8)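 Human cancer cells (5×10^3/well) attached 18 h in RPMI 1640 10% FBS, then exposed 48 h at 37°C to compounds from 10 to 10^−8 μg/ml in DMSO/EtOH/PBS. TCA-fixed, SRB-stained, OD read at 490 nm; GI, TGI and LC derived from triplicate wells.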

LNCaP = assay: Inhibition of cells growth by colorimetric assay (SRB), LNCaP
Experimental: as §1, §2, §3, §4, §5, §6, §7

IGROV-ET = assay: Inhibition of cells growth by colorimetric assay (SRB), IGROV-ET
Experimental: as §1, §2, §3, §4, §5, §6, §7

PANC-1 = assay: Inhibition of cells growth by colorimetric assay (SRB), PANC-1
Experimental: as §1, §2, §3, §4, §5, §6, §7

DU-145 = assay: Inhibition of cells growth by colorimetric assay (SRB), DU-145
Experimental: as §1, §2, §3, §4, §5, §6, §7

SK-BR-3 = assay: Inhibition of cells growth by colorimetric assay (SRB), SK-BR-3
Experimental: as §1, §2, §3, §4, §5, §6, §7

SK-OV-3 = assay: Inhibition of cells growth by colorimetric assay (SRB), SK-OV-3
Experimental: as §1, §2, §3, §4, §5, §6, §7

LoVo = assay: Inhibition of cells growth by colorimetric assay (SRB), LoVo
Experimental: as §1, §2, §3, §4, §5, §6, §7

A-549 = assay: Inhibition of cells growth by colorimetric assay (SRB), A-549
In short: as §8

SK-MEL-28 = assay: Inhibition of cells growth by colorimetric assay (SRB), SK-MEL-28
In short: as §8

IGROV-1 = assay: Inhibition of cells growth by colorimetric assay (SRB), IGROV-1
Experimental: as §1, §2, §3, §4, §5, §6, §7

C=COC(=O)Oc1cc2c(cc1OC)[C@@]1(CS[C@@H]3c4c(OC(C)=O)c(C)c5c(c4[C@H](COC1=O)N1C3[C@H]3c4c(cc(C)c(OC)c4O)C[C@@H]([C@@H]1O)N3C)OCO5)N(C(=O)OC=C)CC2 (stereo partly drawn) [Compound 100]
HMEC-1 TGI (HMEC1; HMEC-1): 5.14E-08 | GI50 (HMEC1; Homo sapiens, HMEC-1, 48 h, HMEC-1, read-out: HMEC-1 GI50): 27.5 nM | LC50 (HMEC1; Homo sapiens, HMEC-1, 48 h, read-out: HMEC-1 LC50, HMEC-1): 96.1 nM | GI50 (LoVo-Dox; Homo sapiens, 48 h, LOVO-DOX, read-out: LOVO-DOX GI50): 392 nM | CC50 (LoVo-Dox; Homo sapiens, 48 h, read-out: LOVO-DOX LC50, LOVO-DOX): 11.1 µM | LOVO-DOX TGI (LoVo-Dox; LOVO-DOX): 2.73E-06 | GI50 (K-562; Homo sapiens, K562, 48 h, K-562, read-out: K-562 GI50): 36.4 nM | LC50 (50% cell killing) (K-562; Homo sapiens, K562, 48 h, read-out: K-562 LC50, K-562): 106 nM | K-562 TGI (K-562; K-562): 6.20E-08 | HT-29 TGI (HT-29; HT-29): 8.07E-08 | GI50 (HT-29; Homo sapiens, HT-29, 48 h, HT-29, read-out: HT-29 GI50): 35 nM | LC50 (concentration for 50% cell killing) (HT-29; Homo sapiens, HT-29, 48 h, read-out: HT-29 LC50, HT-29): 11.1 µM | GI50 (LNCaP; Homo sapiens, LNCaP, 48 h, read-out: LNCAP GI50, LNCAP): 21.5 nM | CC50 (LNCaP; Homo sapiens, LNCaP, 48 h, read-out: LNCAP LC50, LNCAP): 66.5 nM | LNCAP TGI (LNCaP; LNCAP): 3.79E-08 | GI50 (IGROV-ET; Homo sapiens, 48 h, IGROV-ET, read-out: IGROV-ET GI50): 63.2 nM | CC50 (IGROV-ET; Homo sapiens, 48 h, read-out: IGROV-ET LC50, IGROV-ET): 11.1 µM | IGROV-ET TGI (IGROV-ET; IGROV-ET): 7.41E-07 | GI50 (PANC-1; Homo sapiens, PANC-1, 48 h, PANC-1, read-out: PANC-1 GI50): 41.4 nM | LC50 (concentration for 50% net cell kill) (PANC-1; Homo sapiens, PANC-1, 48 h, read-out: PANC-1 LC50, PANC-1): 8.32 µM | PANC-1 TGI (PANC-1; PANC-1): 1.14E-08 | DU-145 TGI (DU-145; DU-145): 1.03E-07 | GI50 (DU-145; Homo sapiens, DU-145, 48 h, DU-145, read-out: DU-145 GI50): 43.1 nM | CC50 (DU-145; Homo sapiens, DU-145, 48 h, read-out: DU-145 LC50, DU-145): 8.32 µM | GI50 (SK-BR-3; Homo sapiens, SK-BR-3, 48 h, SK-BR3, read-out: SK-BR3 GI50): 40.5 nM | CC50 (SK-BR-3; Homo sapiens, SK-BR-3, 48 h, read-out: SK-BR3 LC50, SK-BR3): 1720 nM | SK-BR3 TGI (SK-BR-3; SK-BR3): 9.87E-08 | GI50 (SK-OV-3; Homo sapiens, SK-OV-3, 48 h, SK-OV3, read-out: SK-OV3 GI50): 28.2 nM | LC50 (SK-OV-3; Homo sapiens, SK-OV-3, 48 h, read-out: SK-OV3 LC50, SK-OV3): 111 nM | SK-OV3 TGI (SK-OV-3; SK-OV3): 5.74E-08 | GI50 (LoVo; Homo sapiens, LoVo, 48 h, LOVO, read-out: LOVO GI50): 24.4 nM | LC50 (concentration for 50% cell killing) (LoVo; Homo sapiens, LoVo, 48 h, read-out: LOVO LC50, LOVO): 82.3 nM | LOVO TGI (LoVo; LOVO): 4.48E-08 | A-549 TGI (A-549; A-549): 6.20E-08 | GI50 (A-549; Homo sapiens, A549, 48 h, A-549, read-out: A-549 GI50): 29.8 nM | LC50 (concentration for 50% cell killing) (A-549; Homo sapiens, A549, 48 h, read-out: A-549 LC50, A-549): 112 nM | GI50 (SK-MEL-28; Homo sapiens, SK-MEL-28, 48 h, MEL-28, read-out: MEL-28 GI50): 26.5 nM | CC50 (SK-MEL-28; Homo sapiens, SK-MEL-28, 48 h, read-out: MEL-28 LC50, MEL-28): 95.9 nM | MEL-28 TGI (SK-MEL-28; MEL-28): 5.04E-08 | GI50 (IGROV-1; Homo sapiens, IGROV-1, 48 h, IGROV, read-out: IGROV GI50): 35.1 nM | CC50 (IGROV-1; Homo sapiens, IGROV-1, 48 h, read-out: IGROV LC50, IGROV): 915 nM | IGROV TGI (IGROV-1; IGROV): 6.54E-08
